The values below come from US9598362B2, “Benzidine derivative, method for preparing same, and pharmaceutical composition containing benzidine derivative for treating liver disease caused by hepatitis C virus” (priority 2013, dated 2017).

Data set [1] in a line: Evaluation of plasma stability. Type of data set: in vitro ADME, mouse. Conditions: plasma:phosphate buffer pH 7.4 1:1, 37° C., LC-MS/MS, relative to time 0. The method, then:
Particularly, the compound of Example 16 was dissolved in dimethylsulfoxide at the concentration of 5 μM, resulting in the preparation of the sample solution. The plasma solution (495 μl) was prepared by mixing phosphate buffer (pH 7.4) and plasma at the ratio of 1:1, which was loaded in each well of a 96-well plate. The sample solution prepared above was added to each well (5 μl) of the plate. Then, the plate was covered with a lid, followed by shaking-culture at 100 rpm at 37° C. for 0.5, 1, and 4 hours in the orbital shaker. The reaction was terminated by adding 0-5° C. acetonitrile. At this time, in the case when the process time was 0 after the sample treatment, the reaction was terminated with acetonitrile at the same time as the sample solution was loaded in the plate containing the plasma solution. Upon completion of the reaction, the plate was kept frozen. Then, the plate was centrifuged at 3000 rpm for 10 minutes. Upon completion of the centrifugation, the supernatant (100 μl) was loaded in each well of a 96-well plate, followed by LC-MS/MS. The result obtained by measuring the plasma survival rate at the process time 0 was considered as the standard, based on which each time-dependent plasma survival rate was calculated by considering the concentration over the time of each sample. The results are presented in Tale 6.

A short description of data set [2]: Evaluation of physiological activity: pharmacokinetics after oral or intravenous administration. The data set is classed as in vivo. The note with it: male mouse, 5 mg/kg; for AUC(0-inf): read-out: AUC0-∞, value up to infinite time from the administration; for half-life: read-out: T1/2 (time) (converted). The method, then: The following experiment was performed to evaluate physiological activity of the compound prepared in Example 16 by observing the pharmacokinetic changes.
Particularly, the compound of Example 16 was orally or intravenously administered to male mouse, followed by observation of the pharmacokinetic changes. For the oral administration, the compound of Example 16 was dissolved to make the concentration 2.5 mg/ml. The prepared compound solution was orally administered at the dose of 5 mg/kg, followed by drawing blood from the jugular vein of the mouse at regular intervals. For the intravenous administration, tubes were inserted in the jugular vein and the femoral vein of male mouse. The compound solution was intravenously injected through the femoral vein at the dose of 5 mg/kg, followed by drawing blood from the mouse at regular intervals. The drawed blood was centrifuged to separate plasma. The plasma and urine samples were pretreated with a proper organic solvent, followed by investigation by LC-MS/MS. At this time, LC-MS/MS was performed by using mass spectrometry (Agilent 6460 QQQ, Agilent), LC lamp (Agilent 1260, Agilent), autosampler (Agilent 1260, Agilent), and data analysis system (Peak Sample Data System, Analyst 1.4.2, Applied Biosystems), and the conditions for LC-MS/MS were as follows; sample injection amount: 10 μl, flow rate: 0.3 ml/min, column: […] C18 column (50 mm×2.0 mm, 12 nm, YMC), elution buffer: acetonitrile: 10 mM ammoniumformate buffer=90:10 (v/v), and MS/MS condition: MPM mode: HCV (m/z 761.8170.1), IS (imipramine, m/z 281.286.2). The blood concentration over the administration period of the compound treated via oral or intravenous administration was analyzed, from which the noncompartmental pharmacokinetic parameter was calculated by using WinNonlin (Pharsight, USA).

A further data set relates to HCV replicon NK/R2AN. The experiment in a line: Evaluation of anti-HCV activity 2: inhibition of HCV replication, huh7.5.1 cells with replicon NK/R2AN, renilla luciferase. Type of data set: cell-based. Conditions: for EC50: Hepatitis C virus. As to the method: To evaluate the anti-HCV activity, that is the activity to inhibit HCV replication, of the compound represented by formula 1 of the present invention, the following experiment was performed.
The hepatoma cell line huh7.5.1 having NK/R2AN, the replicon with which the replication and translation of HCV could be measured, was distributed in a 12-well cell culture plate at the density of 50,000 cells/well. The cells were cultured in DMEM (Dulbecco's Modified Eagle's Medium 12800-017, GIBCO Co.) supplemented with 10% (v/v) FBS (Fetal Bovine Serum SH30406.02, Hyclone Co.), 1% (v/v) antibiotics (penicillin/streptomycin solution SV30010, Hyclone Co.), and G418 (600 μg/mL, Calbiochem) in a 37° C. 6.0% CO2 incubator (CO2 Incubator 311, Forma Scientific Co, Lnc. USA) for 24 hours to lead cell attachment on the plate. Then, the cells were inoculated with HCV having renilla luciferase gene as a reporter for 3 hours. Upon completion of the virus inoculation, the cell culture medium was replaced with the medium containing the compounds prepared in Examples 1˜24 were added to the culture medium at the concentrations of 40 pM˜1 μM each. The cells were cultured in a 37° C. 6.0% CO2 incubator (CO2 Incubator 311, Forma Scientific Co, Lnc. USA) for 3 days. Three days after the infection, the cell culture medium was collected to measure the cytotoxicity in the following Experimental Example 3. The cells attached on the plate were washed with PBS (phosphate buffered saline) and then lysed by treating 100 μl of 1× passive lysis buffer (Promega, E1941). The cell lysate (10 μl) was added to renilla luciferase assay reagent (50 μl) in renilla luciferase assay system (Promega, E2820), followed by measurement of luminescence for 10 seconds using the luciferase measure program with Luminometer (GLOMAX 20/20 Luminometer, Promega). At this time, the measurement of luminescence was performed in triplicate with the groups treated with the compounds of Examples 1˜24 and the non-treated control group. The mean value was calculated and compared. The luminescence of each compound over the concentration was converted into EC50 (half maximal effective concentration) by using sigma plot program, and the results are shown in Table 3. At this time, when EC50 was under 100 pM, it was marked as A; when EC50 was in the range of 100 pM 1 nM, it was marked as B; when EC50 was in the range of 1 nM˜100 nM, it was marked as C; and when EC50 was over 100 nM, it was marked as D. The results are shown in Table 3.

The next data set deals with hERG (Homo sapiens, UniProt Q12809). As to the kind of experiment: hERG ligand binding, fluorescence polarization with red fluorescent hERG channel ligand.

The structures appear in SMILES notation. Like-named read-outs stand apart in the source and are kept apart here.

Chain of hERG (Q12809 whole entry): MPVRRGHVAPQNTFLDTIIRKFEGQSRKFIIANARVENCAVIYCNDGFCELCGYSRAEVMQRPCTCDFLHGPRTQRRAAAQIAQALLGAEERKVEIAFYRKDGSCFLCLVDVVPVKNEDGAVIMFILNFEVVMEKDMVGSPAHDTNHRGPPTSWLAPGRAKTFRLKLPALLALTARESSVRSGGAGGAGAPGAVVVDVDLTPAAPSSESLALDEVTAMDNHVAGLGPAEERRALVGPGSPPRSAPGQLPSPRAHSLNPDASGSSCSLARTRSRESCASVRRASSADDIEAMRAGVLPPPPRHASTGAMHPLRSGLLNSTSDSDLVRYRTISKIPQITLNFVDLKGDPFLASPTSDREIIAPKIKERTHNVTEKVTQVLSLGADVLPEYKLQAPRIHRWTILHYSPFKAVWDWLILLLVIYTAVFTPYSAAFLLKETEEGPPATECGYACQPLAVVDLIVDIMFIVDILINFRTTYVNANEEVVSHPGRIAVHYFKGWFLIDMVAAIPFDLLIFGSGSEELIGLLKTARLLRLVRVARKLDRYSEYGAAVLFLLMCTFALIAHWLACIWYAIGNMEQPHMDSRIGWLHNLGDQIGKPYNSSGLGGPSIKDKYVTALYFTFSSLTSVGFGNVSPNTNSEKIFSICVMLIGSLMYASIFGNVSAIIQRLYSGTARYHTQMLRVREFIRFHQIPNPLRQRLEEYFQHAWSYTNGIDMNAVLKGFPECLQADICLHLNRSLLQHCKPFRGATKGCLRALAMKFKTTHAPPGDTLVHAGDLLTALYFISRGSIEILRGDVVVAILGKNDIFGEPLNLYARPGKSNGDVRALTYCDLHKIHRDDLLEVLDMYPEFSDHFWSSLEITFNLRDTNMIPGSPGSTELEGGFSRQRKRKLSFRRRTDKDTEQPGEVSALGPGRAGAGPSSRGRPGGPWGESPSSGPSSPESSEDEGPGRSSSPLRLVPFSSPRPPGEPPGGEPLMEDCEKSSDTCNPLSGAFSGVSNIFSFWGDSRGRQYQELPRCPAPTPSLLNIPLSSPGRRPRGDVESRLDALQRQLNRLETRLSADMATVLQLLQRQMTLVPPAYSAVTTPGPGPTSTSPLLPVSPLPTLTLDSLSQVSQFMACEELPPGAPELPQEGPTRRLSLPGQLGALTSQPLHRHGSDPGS

As for `COC(=O)N[C@@H](C(=O)N1CCC[C@H]1C(=O)Nc1ccc(-c2ccc(NC(=O)[C@@H]3CCCN3C(=O)[C@H](NC(=O)OC)c3ccccc3)cc2)cc1)c1ccccc1` [Example 16, dimethyl(1S,1′S)-2,2′-((2S,2′S)-2,2′-(biphenyl-4,4′-diylbis(azandiyl))bis(oxomethylene)bis(pyrrolidine-2,1-diyl))bis(2-oxo-1-phenylethane-2,1-diyl)dicarbamate], in data set [1], the “Survival rate after 0.5 h” value is listed as over 99%. Also, the “Survival rate after 1 h” value in data set [1] is recorded as over 99%. Moreover, the AUC0-t in data set [2] (intravenous injection) is 9160 ± 1030 ng·h/mL; in data set [2] (oral administration), 1830 ± 565 ng·h/mL; in data set [2] (plasma, iv, intravenously injected, read-out: AUC0-24, value up to 24 hours from the administration), 9160 ng·h/mL; in data set [2] (plasma, po, orally administered, read-out: AUC0-24, value up to 24 hours from the administration) it was 1830 ng·h/mL. The “AUC0-∞” value in data set [2] (intravenous injection) was found to be 9370 ± 1060 ng·h/mL; in data set [2] (oral administration) it was 2500 ± 498 ng·h/mL. Besides, the “Tmax (time)” value in data set [2] (oral administration) is 2 ± 1.73 time. The concentration in data set [2] (oral administration, plasma) peaked (Cmax) at 188 ng/mL. Moreover, the AUC(0-inf) in data set [2] (plasma, iv, intravenously injected) came out at 9370 ng·h/mL; in data set [2] (plasma, po, orally administered), 2500 ng·h/mL. In data set [2] (plasma, po relative to iv, printed in the Intravenous Injection column, read-out: Ft, bioavailability), the bioavailability was determined as 20%. In addition, the clearance in data set [2] (plasma, intravenous injection) was 8.97 mL/min/kg. The half-life in data set [2] (plasma, intravenous injection) is 4.09 ± 3.06 h; in data set [2] (plasma, oral administration) it was 15 ± 9.5 h. Also, the Vd in data set [2] (plasma, intravenous injection, read-out: Vss) stood at 1.31 ± 0.144 L/kg. Besides, the Tmax in data set [2] (plasma, oral administration, read-out: time to reach the maximum concentration (Tmax)) amounted to 2 h. Further, the EC50 was under 0.0001 µM in the data set with HCV replicon NK/R2AN (Huh-7.5.1) and under 0.0001 µM in the data set with HCV replicon NK/R2AN (Huh-7.5.1, 72 h, read-out: EC50 grade). The “EC50 (in words)” value in the data set with HCV replicon NK/R2AN (duplicated HCV treated with compound) is “significantly low”. This compound yielded an IC50 on hERG of 9.8 µM.
